ChEMBL document CHEMBL1201862, “PubChem BioAssay data set” (2004)
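How tested: cells in 96-well plates exposed to compound for 48 hours at five concentrations. GI50 = concentration required for 50% inhibition of growth.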 The source made the active and inactive calls. No stated cut-off is given here; in the data, active = GI50 up to about 1.1 µM and inactive = higher.

How the values were obtained:
Assay in all cases: growth of human tumour cells (NCI), 48 h
HT-29 = test system: HT-29
MDA-MB-231 = test system: MDA-MB-231
DU-145 = test system: DU-145
NCI/ADR-RES = test system: NCI/ADR-RES
IGROV-1 = test system: IGROV-1
BT-549 = test system: BT-549
UACC-62 = test system: UACC-62
COLO 205 = test system: COLO 205
SNB-19 = test system: SNB-19
M14 = test system: M14
Malme-3M = test system: Malme-3M
HOP-92 = test system: HOP-92
T47D = test system: T47D
SN12C = test system: SN12C
HCT-15 = test system: HCT-15
SF-295 = test system: SF-295
SK-MEL-28 = test system: SK-MEL-28
A549 = test system: A549
SK-MEL-5 = test system: SK-MEL-5
SK-OV-3 = test system: SK-OV-3

Row | Structure (SMILES) | GI50 (HT-29) | GI50 (MDA-MB-231) | GI50 (DU-145) | GI50 (NCI/ADR-RES) | GI50 (IGROV-1) | GI50 (BT-549) | GI50 (UACC-62) | GI50 (COLO 205) | GI50 (SNB-19) | GI50 (M14) | GI50 (Malme-3M) | GI50 (HOP-92) | GI50 (T47D) | GI50 (SN12C) | GI50 (HCT-15) [µM] | GI50 (SF-295) | GI50 (SK-MEL-28) | GI50 (A549) | GI50 (SK-MEL-5) | GI50 (SK-OV-3)
1 | COC(=O)C(Cc1ccccc1)NC(=O)CNC(=O)CSc1nnc(COc2ccc(Cl)cc2)n1-c1ccccc1 (stereo not given) | 18.8 µM (inactive) | 17 µM (inactive) | 17.5 µM (inactive) | 20 µM (inactive) | 15.4 µM (inactive) | 18.7 µM (inactive) | 14.5 µM (inactive) | 16.2 µM (inactive) | 17.2 µM (inactive) | 17.7 µM (inactive) | 18.7 µM (inactive) | 17.4 µM (inactive) | 12.5 µM (inactive) | 17.9 µM (inactive) | 18.1 | 17.8 µM (inactive) | 18 µM (inactive) | 17.8 µM (inactive) | 16.1 µM (inactive) | 14.5 µM (inactive)
2 | Clc1ccc(Cc2nc3cc(Cl)ccc3o2)cc1 | 26.8 µM (inactive) | 31.7 µM (inactive) | 60.8 µM (inactive) | 31.9 µM (inactive) | 23.8 µM (inactive) | 27.9 µM (inactive) | 36.9 µM (inactive) | 29.8 µM (inactive) | 39.6 µM (inactive) | 34.8 µM (inactive) | 36.1 µM (inactive) | 31.6 µM (inactive) | 35.8 µM (inactive) | 40.1 µM (inactive) | 29.5 | 22.8 µM (inactive) | 41.4 µM (inactive) | 41.5 µM (inactive) | 15.3 µM (inactive) | 23 µM (inactive)
3 | Cc1ccc(C(=O)/C=C2\Nc3cccnc3NC2=O)cc1 | > 100 µM (inactive) | 30.8 µM (inactive) | > 100 µM (inactive) | > 100 µM (inactive) | > 100 µM (inactive) | > 100 µM (inactive) | > 100 µM (inactive) | > 100 µM (inactive) | > 100 µM (inactive) | > 100 µM (inactive) | 95.9 µM (inactive) | > 100 µM (inactive) | > 100 µM (inactive) | > 100 µM (inactive) | > 100 | > 100 µM (inactive) | > 100 µM (inactive) | > 100 µM (inactive) | > 100 µM (inactive) | > 100 µM (inactive)
4 | c1ccc2[nH]c(C3CCCCO3)nc2c1 (stereo not given) | > 100 µM (inactive) | > 100 µM (inactive) | > 100 µM (inactive) | > 100 µM (inactive) | > 100 µM (inactive) | > 100 µM (inactive) | > 100 µM (inactive) | > 100 µM (inactive) | > 100 µM (inactive) | > 100 µM (inactive) | > 100 µM (inactive) | > 100 µM (inactive) | > 100 µM (inactive) | > 100 µM (inactive) | > 100 | > 100 µM (inactive) | > 100 µM (inactive) | > 100 µM (inactive) | > 100 µM (inactive) | > 100 µM (inactive)
5 | CC1(C)CC2(C)ON=C(c3ccccc3)N2c2ccccc2N1 (stereo not given) | 16.4 µM (inactive) | 14.4 µM (inactive) | 33.1 µM (inactive) | 23.4 µM (inactive) | 32.1 µM (inactive) | 17.8 µM (inactive) | 14.1 µM (inactive) | 19.5 µM (inactive) | 24.2 µM (inactive) | 19.6 µM (inactive) | 20.5 µM (inactive) | 21.6 µM (inactive) | 21.9 µM (inactive) | 30.3 µM (inactive) | 29.6 | 28.7 µM (inactive) | 23 µM (inactive) | 25.1 µM (inactive) | 16.7 µM (inactive) | 21.7 µM (inactive)
6 | CCCC(=O)NC(Nc1ccc(S(=O)(=O)Nc2cc(C)on2)cc1)(C(=O)OCC)C(F)(F)F (stereo not given) | > 100 µM (inactive) | > 100 µM (inactive) | > 100 µM (inactive) | > 100 µM (inactive) | > 100 µM (inactive) | > 100 µM (inactive) | > 100 µM (inactive) | > 100 µM (inactive) | > 100 µM (inactive) | > 100 µM (inactive) | > 100 µM (inactive) | > 100 µM (inactive) | > 100 µM (inactive) | > 100 µM (inactive) | > 100 | > 100 µM (inactive) | > 100 µM (inactive) | > 100 µM (inactive) | > 100 µM (inactive) | > 100 µM (inactive)
